From patent publication US20250114345A1, “COMPOUNDS AND COMPOSITIONS AS CBP/P300 DEGRADERS AND USES THEREOF” (Oncopia Therapeutics, Inc. d/b/a/ SK Life Science Labs, priority 2023, published 2025)

Legend:
p300 = target: T1, p300 (Homo sapiens, UniProt Q09472); assay: P300 degradation, HiBit technology in A549 P300 HiBit cells (2 h); format: cell-based; settings: 2 hrs post treatment; for Dmax: A549, A549 P300 HiBit cells
T1 construct: host or cells: A549 P300 HiBit cells
In short: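 A549 cells carrying HiBit-tagged p300 or CBP, seeded overnight at 37 °C/5% CO2, then treated with serial compound dilutions from 10 mM DMSO stocks. Incubation was 2 h for p300 and 24 h for CBP, followed by HiBit lytic detection reagent for 10 min at room temperature. Luminescence read gave degradation potency and Dmax.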

CBP = target: T2, CBP (Homo sapiens, UniProt Q92793); assay: CBP degradation, HiBit technology in A549 CBP HiBit cells (24 h); format: cell-based; settings: 24 hrs post treatment
T2 construct: host or cells: A549 CBP HiBit cells
Procedure: p300 and CBP degradation potency and Dmax were determined using in cell western (ICW) assay technology in H1299 cells or HiBit technology in A549 HiBit cells.
A549 P300 HiBit and A549 CBP HiBit cells were plated in separate 384-well, TC treated, white-opaque, flat-bottomed microplate. Cells were plated at a cell density of 0.2×10^4 cells per well in assay media comprised of F-12K, 10% heat inactivated FBS, and 1% penicillin/streptomycin. Assay microplates containing HiBit cells were placed in a 37° C., 5% CO2, tissue culture incubator and left to equilibrate overnight. The next day cells were treated with serial dilutions of test compound made up of 10 mM stock solutions in DMSO. 384-Well plates containing treated cells were then placed back into a 37° C., 5% CO2, tissue culture incubator. Assay microplates containing A549 P300 HiBit cells were incubated for 2 hrs post treatment before P300 destruction was assessed, while microplates containing A549 CBP HiBit cells were incubated for 24 hrs post treatment before CBP destruction was determined. On the day of each assay time point, microplates were removed from the tissue culture incubator and prepared HiBit Lytic detection buffer (Promega, cat #N3O40) was added to each plate. Plates were covered with aluminum foil and incubated for ten minutes at room temperature on an orbital shaker. After incubation, luminescent signal of each plate was measured using the Envision instrument (Perkin Elmer).

T2 sequence (Q92793 whole entry): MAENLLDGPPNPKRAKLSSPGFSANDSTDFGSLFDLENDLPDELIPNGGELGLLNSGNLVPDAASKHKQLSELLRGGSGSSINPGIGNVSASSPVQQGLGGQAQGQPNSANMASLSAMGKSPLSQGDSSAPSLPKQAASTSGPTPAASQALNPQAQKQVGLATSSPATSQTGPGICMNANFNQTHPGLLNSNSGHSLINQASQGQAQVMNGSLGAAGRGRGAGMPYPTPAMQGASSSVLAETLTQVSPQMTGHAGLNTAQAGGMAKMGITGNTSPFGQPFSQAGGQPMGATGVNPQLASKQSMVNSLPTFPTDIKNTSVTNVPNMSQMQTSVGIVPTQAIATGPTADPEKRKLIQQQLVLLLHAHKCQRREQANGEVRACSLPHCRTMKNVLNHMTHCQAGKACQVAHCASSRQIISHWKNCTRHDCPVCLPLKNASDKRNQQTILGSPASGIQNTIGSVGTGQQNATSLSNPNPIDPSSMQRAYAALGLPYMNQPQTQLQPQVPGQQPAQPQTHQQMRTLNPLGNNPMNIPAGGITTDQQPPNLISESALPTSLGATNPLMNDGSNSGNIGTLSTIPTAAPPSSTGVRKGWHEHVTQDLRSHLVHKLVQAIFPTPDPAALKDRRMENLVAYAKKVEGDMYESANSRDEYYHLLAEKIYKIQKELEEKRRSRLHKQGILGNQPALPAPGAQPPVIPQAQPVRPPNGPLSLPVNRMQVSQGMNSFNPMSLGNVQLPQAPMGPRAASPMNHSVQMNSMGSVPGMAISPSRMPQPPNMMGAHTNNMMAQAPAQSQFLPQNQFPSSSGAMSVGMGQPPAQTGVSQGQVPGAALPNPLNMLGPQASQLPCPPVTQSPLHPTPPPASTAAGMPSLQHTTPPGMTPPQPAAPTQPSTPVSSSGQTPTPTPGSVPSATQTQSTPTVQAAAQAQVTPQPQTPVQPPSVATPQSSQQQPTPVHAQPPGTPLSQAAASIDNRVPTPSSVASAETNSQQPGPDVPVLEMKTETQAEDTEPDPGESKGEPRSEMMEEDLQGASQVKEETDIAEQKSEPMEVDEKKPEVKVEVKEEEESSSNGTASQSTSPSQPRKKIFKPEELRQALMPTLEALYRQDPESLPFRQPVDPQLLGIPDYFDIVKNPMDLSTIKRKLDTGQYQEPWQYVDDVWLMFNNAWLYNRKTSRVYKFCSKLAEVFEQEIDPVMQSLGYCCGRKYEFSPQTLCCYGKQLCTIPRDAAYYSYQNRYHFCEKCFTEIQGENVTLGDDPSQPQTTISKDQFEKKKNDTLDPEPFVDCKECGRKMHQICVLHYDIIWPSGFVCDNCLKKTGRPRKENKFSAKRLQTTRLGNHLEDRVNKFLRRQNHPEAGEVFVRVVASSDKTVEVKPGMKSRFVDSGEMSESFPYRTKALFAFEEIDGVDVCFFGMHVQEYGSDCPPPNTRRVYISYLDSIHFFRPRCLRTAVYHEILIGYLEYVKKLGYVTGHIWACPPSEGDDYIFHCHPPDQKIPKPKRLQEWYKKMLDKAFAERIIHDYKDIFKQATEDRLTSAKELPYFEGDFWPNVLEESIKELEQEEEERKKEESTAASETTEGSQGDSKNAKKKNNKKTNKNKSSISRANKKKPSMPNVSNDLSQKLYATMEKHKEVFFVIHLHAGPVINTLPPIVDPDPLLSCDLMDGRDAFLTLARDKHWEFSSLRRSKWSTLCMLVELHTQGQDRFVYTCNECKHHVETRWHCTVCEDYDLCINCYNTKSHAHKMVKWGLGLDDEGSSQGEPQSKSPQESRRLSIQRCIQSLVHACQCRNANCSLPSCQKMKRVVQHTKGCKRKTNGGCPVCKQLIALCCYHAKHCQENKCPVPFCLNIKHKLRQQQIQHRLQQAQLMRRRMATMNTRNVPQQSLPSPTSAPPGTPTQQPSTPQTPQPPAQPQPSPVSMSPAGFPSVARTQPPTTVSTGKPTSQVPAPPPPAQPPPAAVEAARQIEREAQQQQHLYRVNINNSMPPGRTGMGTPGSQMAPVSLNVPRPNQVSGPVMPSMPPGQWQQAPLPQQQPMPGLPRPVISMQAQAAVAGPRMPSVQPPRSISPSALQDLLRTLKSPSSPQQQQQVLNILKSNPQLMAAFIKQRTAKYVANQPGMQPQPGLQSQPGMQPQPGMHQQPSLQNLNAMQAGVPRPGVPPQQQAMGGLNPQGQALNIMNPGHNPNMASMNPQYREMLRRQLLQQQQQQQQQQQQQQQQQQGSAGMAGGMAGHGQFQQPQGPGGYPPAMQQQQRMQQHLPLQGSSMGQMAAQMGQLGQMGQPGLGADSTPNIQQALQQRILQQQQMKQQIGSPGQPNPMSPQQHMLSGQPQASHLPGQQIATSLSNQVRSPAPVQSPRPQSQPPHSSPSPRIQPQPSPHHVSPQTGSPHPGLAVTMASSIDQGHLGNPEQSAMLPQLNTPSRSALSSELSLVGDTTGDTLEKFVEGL
T1 sequence (Q09472 whole entry): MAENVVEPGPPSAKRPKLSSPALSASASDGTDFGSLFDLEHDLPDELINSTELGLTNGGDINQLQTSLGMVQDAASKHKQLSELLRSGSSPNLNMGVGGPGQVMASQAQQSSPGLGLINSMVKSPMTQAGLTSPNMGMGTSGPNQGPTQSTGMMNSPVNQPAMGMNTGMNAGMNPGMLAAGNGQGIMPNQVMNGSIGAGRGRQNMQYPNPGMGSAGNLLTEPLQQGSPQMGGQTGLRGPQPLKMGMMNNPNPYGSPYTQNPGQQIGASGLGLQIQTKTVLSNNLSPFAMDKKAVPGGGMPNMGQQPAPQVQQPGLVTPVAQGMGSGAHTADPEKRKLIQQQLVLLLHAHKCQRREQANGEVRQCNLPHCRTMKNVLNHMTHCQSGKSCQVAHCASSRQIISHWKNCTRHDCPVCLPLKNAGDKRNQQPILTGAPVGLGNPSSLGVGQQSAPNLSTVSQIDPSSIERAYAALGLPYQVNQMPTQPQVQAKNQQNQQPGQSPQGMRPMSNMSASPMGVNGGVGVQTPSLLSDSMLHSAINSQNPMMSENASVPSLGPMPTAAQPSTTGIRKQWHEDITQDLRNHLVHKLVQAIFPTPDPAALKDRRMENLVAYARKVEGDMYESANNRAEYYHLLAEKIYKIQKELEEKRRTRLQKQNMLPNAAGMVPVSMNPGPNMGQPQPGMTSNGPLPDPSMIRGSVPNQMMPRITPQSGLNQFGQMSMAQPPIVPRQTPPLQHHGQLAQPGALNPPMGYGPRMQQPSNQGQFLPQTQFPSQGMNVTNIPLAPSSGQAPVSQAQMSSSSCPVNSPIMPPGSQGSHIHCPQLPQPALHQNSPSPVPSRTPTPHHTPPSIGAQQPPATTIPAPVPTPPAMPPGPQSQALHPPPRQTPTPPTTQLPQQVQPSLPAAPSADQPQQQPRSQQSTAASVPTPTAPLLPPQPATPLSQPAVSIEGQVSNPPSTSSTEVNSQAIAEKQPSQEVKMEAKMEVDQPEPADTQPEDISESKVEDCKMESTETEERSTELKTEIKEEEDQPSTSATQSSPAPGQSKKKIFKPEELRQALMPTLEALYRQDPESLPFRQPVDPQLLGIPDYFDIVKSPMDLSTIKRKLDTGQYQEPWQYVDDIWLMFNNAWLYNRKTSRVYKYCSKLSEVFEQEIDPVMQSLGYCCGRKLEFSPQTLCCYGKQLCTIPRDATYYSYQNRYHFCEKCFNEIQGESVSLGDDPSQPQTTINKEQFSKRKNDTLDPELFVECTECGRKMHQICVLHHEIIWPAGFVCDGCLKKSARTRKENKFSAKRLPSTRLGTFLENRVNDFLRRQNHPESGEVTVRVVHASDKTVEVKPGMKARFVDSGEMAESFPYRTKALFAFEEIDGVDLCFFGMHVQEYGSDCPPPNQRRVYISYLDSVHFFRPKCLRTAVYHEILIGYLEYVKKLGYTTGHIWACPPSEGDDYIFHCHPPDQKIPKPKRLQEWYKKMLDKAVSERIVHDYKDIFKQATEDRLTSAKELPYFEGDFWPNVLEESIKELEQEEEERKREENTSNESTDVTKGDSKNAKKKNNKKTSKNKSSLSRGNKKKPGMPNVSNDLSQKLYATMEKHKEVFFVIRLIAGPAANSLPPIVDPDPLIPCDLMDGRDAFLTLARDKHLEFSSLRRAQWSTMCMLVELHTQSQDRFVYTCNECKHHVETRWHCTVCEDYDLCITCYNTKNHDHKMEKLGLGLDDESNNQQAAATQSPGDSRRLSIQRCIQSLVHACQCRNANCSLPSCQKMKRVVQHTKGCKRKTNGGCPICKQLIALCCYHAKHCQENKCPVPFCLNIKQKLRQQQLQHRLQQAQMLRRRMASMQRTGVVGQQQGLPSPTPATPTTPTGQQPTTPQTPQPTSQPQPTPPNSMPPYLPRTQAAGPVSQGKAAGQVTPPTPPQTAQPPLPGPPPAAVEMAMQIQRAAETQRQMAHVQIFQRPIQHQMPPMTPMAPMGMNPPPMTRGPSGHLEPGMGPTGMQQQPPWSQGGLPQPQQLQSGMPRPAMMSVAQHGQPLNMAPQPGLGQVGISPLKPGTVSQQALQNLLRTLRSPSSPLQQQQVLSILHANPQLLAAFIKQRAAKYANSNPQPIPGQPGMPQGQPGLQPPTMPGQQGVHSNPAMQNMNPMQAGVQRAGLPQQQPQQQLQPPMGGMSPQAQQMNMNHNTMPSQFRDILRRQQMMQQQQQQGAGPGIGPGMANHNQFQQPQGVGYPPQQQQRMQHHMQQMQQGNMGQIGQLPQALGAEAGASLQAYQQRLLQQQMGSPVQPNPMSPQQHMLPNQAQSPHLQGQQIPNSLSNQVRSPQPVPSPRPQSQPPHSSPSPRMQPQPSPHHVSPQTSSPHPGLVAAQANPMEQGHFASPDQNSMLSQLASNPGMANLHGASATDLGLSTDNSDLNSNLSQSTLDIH

## Cc1cc(-c2ccc(N(C)c3cc(C4CCOCC4)c4c(c3)n(C)c(=O)n4C)cn2)cnc1C(=O)NCC#Cc1cccc(NC2CCC(=O)NC2=O)c1 (stereo not drawn) [Example A45, 5-((1,3-dimethyl-2-oxo-7-(tetrahydro-2H-pyran-4-yl)-2,3-dihydro-1H-benzo[d]imidazol-5-yl) (methyl)amino)-N-(3-(3-((2,6-dioxopiperidin-3-yl)amino)phenyl)prop-2-yn-1-yl)-5′-methyl-[2,3′-bipyridine]-6′-carboxamide]
p300
  Dmax: > 80%
p300; A549 P300 HiBit cells
  DC50: 1 to 9.9 nM
CBP
  DC50: > 1000 nM
  Dmax: < 20%

## Cc1cc(-c2cc3cccc(-c4cc(C(C)C)c5c(c4)n(C)c(=O)n5C)c3cn2)cnc1C(=O)NCC#Cc1ccc2c(c1)c(C1CCC(=O)NC1=O)nn2C (stereo not drawn) [Example A269, N-(3-(3-(2,6-dioxopiperidin-3-yl)-1-methyl-1H-indazol-5-yl)prop-2-yn-1-yl)-5-(8-(7-isopropyl-1,3-dimethyl-2-oxo-2,3-dihydro-1H-benzo[d]imidazol-5-yl)iso-quinolin-3-yl)-3-methylpicolinamide]
p300
  Dmax: > 80%
p300; A549 P300 HiBit cells
  DC50: 1 to 9.9 nM
CBP
  DC50: 10 to 99 nM
  Dmax: > 80%

## Cc1cc(-c2cc3cccc(-c4cc5c(c(N6CCOCC6)n4)n(C)c(=O)n5C)c3cn2)cnc1C(=O)NCC#Cc1ccc2occ(C3CCC(=O)NC3=O)c2c1 (stereo not drawn) [Example A150, 5-(8-(1,3-dimethyl-4-morpholino-2-oxo-2,3-dihydro-1H-imidazo[4,5-c]pyridin-6-yl)isoquinolin-3-yl)-N-(3-(3-(2,6-dioxopiperidin-3-yl)benzofuran-5-yl)prop-2-yn-1-yl)-3-methylpicolinamide]
p300
  Dmax: > 80%
p300; A549 P300 HiBit cells
  DC50: 1 to 9.9 nM
CBP
  DC50: > 1000 nM
  Dmax: < 20%

## Cc1cc2c(N3CCOc4nc(-c5ccc(C(=O)NCC#Cc6cc7c(C8CCC(=O)NC8=O)cccc7o6)nc5)ncc43)cc(C3CCOCC3)nc2n(C)c1=O (stereo not drawn) [Example B166, 5-(5-(6,8-dimethyl-7-oxo-2-(tetrahydro-2H-pyran-4-yl)-7,8-dihydro-1,8-naphthyridin-4-yl)-6,7-dihydro-5H-pyrimido[4,5-b][1,4]oxazin-2-yl)-N-(3-(4-(2,6-dioxopiperidin-3-yl)benzofuran-2-yl)prop-2-yn-1-yl) picolinamide]
p300
  Dmax: 60 to 79%
p300; A549 P300 HiBit cells
  DC50: 1 to 9.9 nM
CBP
  DC50: > 1000 nM
  Dmax: < 20%

## Cc1cc2c(N3CCCc4nc(-c5ccc(C(=O)NCC#Cc6cc7cccc(C8CCC(=O)NC8=O)c7o6)nc5)ncc43)cc(C3CCOCC3)cc2n(C)c1=O (stereo not drawn) [Example B148, 5-(5-(1,3-dimethyl-2-oxo-7-(tetrahydro-2H-pyran-4-yl)-1,2-dihydroquinolin-5-yl)-5,6,7,8-tetrahydropyrido[3,2-d]pyrimidin-2-yl)-N-(3-(7-(2,6-dioxopiperidin-3-yl)benzofuran-2-yl)prop-2-yn-1-yl)picolinamide]
p300
  Dmax: 60 to 79%
p300; A549 P300 HiBit cells
  DC50: 1 to 9.9 nM
CBP
  DC50: > 1000 nM
  Dmax: < 20%

## CC(C)c1cc(-c2cccc3cc(-c4ccc(C(=O)NCC#Cc5ccc6nnn(C7CCC(=O)NC7=O)c6c5)nc4)ncc23)cc2c1n(C)c(=O)n2C (stereo not drawn) [Example A3, N-(3-(1-(2,6-Dioxopiperidin-3-yl)-1H-benzo[d][1,2,3]triazol-6-yl)prop-2-yn-1-yl)-5-(8-(7-isopropyl-1,3-dimethyl-2-oxo-2,3-dihydro-1H-benzo[d]imidazol-5-yl)isoquinolin-3-yl)picolinamide]
p300
  Dmax: > 80%
p300; A549 P300 HiBit cells
  DC50: < 1 nM
CBP
  DC50: > 1000 nM
  Dmax: < 20%

## Cc1cc2c(N3CCCc4cc(-c5ccc(C(=O)NCC#Cc6cc7c(C8CCC(=O)NC8=O)cccc7o6)nc5)ncc43)cc(C3CCOCC3)nc2n(C)c1=O (stereo not drawn) [Example B169, 5-(1-(6,8-dimethyl-7-oxo-2-(tetrahydro-2H-pyran-4-yl)-7,8-dihydro-1,8-naphthyridin-4-yl)-1,2,3,4-tetrahydro-1,7-naphthyridin-6-yl)-N-(3-(4-(2,6-dioxopiperidin-3-yl)benzofuran-2-yl)prop-2-yn-1-yl)picolinamide]
p300
  Dmax: > 80%
p300; A549 P300 HiBit cells
  DC50: < 1 nM
CBP
  DC50: 1 to 9.9 nM
  Dmax: 40 to 59%

## Cc1cc(-c2ncc3c(n2)OCCN3c2ccc3c(c2)n(C)c(=O)n3C)cnc1C(=O)NCC#Cc1ccc2occ(C3CCC(=O)NC3=O)c2c1 (stereo not drawn) [Example A92, 5-(5-(1,3-dimethyl-2-oxo-2,3-dihydro-1H-benzo[d]imidazol-5-yl)-6,7-dihydro-5H-pyrimido[4,5-b][1,4]oxazin-2-yl)-N-(3-(3-(2,6-dioxopiperidin-3-yl)benzofuran-5-yl)prop-2-yn-1-yl)-3-methylpicolinamide]
p300; A549 P300 HiBit cells
  DC50: 1 to 9.9 nM
  P300 A549 2 h HiBit DMax (%): A (“A”: > 80%)
CBP
  DC50: > 1000 nM
  Dmax: < 20%

## Cc1cc(-c2cc3cccc(-c4cc(C(C)C)c5c(c4)n(C)c(=O)n5C)c3cn2)cnc1C(=O)NCC#Cc1ccc2occ(C3CCC(=O)NC3=O)c2c1 (stereo not drawn) [Example A35, N-(3-(3-(2,6-Dioxopiperidin-3-yl)benzofuran-5-yl)prop-2-yn-1-yl)-5-(8-(7-isopropyl-1,3-dimethyl-2-oxo-2,3-dihydro-1H-benzo[d]imidazol-5-yl)isoquinolin-3-yl)-3-methylpicolinamide]
CBP
  DC50: 10 to 99 nM
  Dmax: 20 to 39%

## COc1cc(-c2cnc(C(=O)NCC#Cc3cc4c(C5CCC(=O)NC5=O)cccc4o3)c(C)c2)ncc1N(C)c1cc(C2CCOCC2)c2c(c1)n(C)c(=O)n2C (stereo not drawn) [Example A166, 5-((1,3-dimethyl-2-oxo-7-(tetrahydro-2H-pyran-4-yl)-2,3-dihydro-1H-benzo[d]imidazol-5-yl)(methyl)amino)-N-(3-(4-(2,6-dioxopiperidin-3-yl)benzofuran-2-yl)prop-2-yn-1-yl)-4-methoxy-5′-methyl-[2,3′-bipyridine]-6′-carboxamide]
p300
  Dmax: 20 to 39%
p300; A549 P300 HiBit cells
  DC50: 1 to 9.9 nM

## CC(C)c1cc(-c2cccc3cc(-c4ccc(C(=O)NCC#Cc5ccc6c(c5)n(C)c(=O)n6C5CCC(=O)NC5=O)nc4)ncc23)cc2c1n(C)c(=O)n2C (stereo not drawn) [Example A36, N-(3-(1-(2,6-Dioxopiperidin-3-yl)-3-methyl-2-oxo-2,3-dihydro-1H-benzo[d]imidazol-5-yl)prop-2-yn-1-yl)-5-(8-(7-isopropyl-1,3-dimethyl-2-oxo-2,3-dihydro-1H-benzo[d]imidazol-5-yl)isoquinolin-3-yl)picolinamide]
CBP
  DC50: > 1000 nM
  Dmax: < 20%

## COC1CN(c2cc(N3CCOc4cc(-c5ccc(C(=O)NCC#Cc6ccc7occ(C8CCC(=O)NC8=O)c7c6)nc5)c(F)cc43)c3cc(C)c(=O)n(C)c3c2)C1 (stereo not drawn) [Example B113, N-(3-(3-(2,6-dioxopiperidin-3-yl)benzofuran-5-yl)prop-2-yn-1-yl)-5-(6-fluoro-4-(7-(3-methoxyazetidin-1-yl)-1,3-dimethyl-2-oxo-1,2-dihydroquinolin-5-yl)-3,4-dihydro-2H-benzo[b][1,4]oxazin-7-yl)picolinamide]
p300
  Dmax: > 80%
p300; A549 P300 HiBit cells
  DC50: 1 to 9.9 nM

## Cc1cc(-c2ncc(N(C)c3cc(C(C)C)c4c(c3)n(C)c(=O)n4C)cc2Cl)cnc1C(=O)NCC#Cc1ccc2occ(C3CCC(=O)NC3=O)c2c1 (stereo not drawn) [Example A116, 3-chloro-N-(3-(3-(2,6-dioxopiperidin-3-yl)benzofuran-5-yl)prop-2-yn-1-yl)-5-((7-isopropyl-1,3-dimethyl-2-oxo-2,3-dihydro-1H-benzo [d]imidazol-5-yl)(methyl)amino)-5′-methyl-[2,3′-bipyridine]-6′-carboxamide]
p300
  Dmax: > 80%
p300; A549 P300 HiBit cells
  DC50: 1 to 9.9 nM

## Cc1cc(-c2ncc(N(C)c3ccc4c(c3)n(C)c(=O)n4C)cn2)cnc1C(=O)NCC#Cc1ccc2occ(C3CCC(=O)NC3=O)c2c1 (stereo not drawn) [Example A103, 5-(5-((1,3-dimethyl-2-oxo-2,3-dihydro-1H-benzo[d]imidazol-5-yl)(methyl)amino)pyrimidin-2-yl)-N-(3-(3-(2,6-dioxopiperidin-3-yl)benzofuran-5-yl)prop-2-yn-1-yl)-3-methylpicolinamide]
p300
  Dmax: 60 to 79%
p300; A549 P300 HiBit cells
  DC50: 1 to 9.9 nM

## Cn1c(=O)ccc2c(N3CCCc4nc(-c5ccc(C(=O)NCC#Cc6ccc7occ(C8CCC(=O)NC8=O)c7c6)nc5)ncc43)cc(C3CCOCC3)cc21 (stereo not drawn) [Example B105, N-(3-(3-(2,6-dioxopiperidin-3-yl)benzofuran-5-yl)prop-2-yn-1-yl)-5-(5-(1-methyl-2-oxo-7-(tetrahydro-2H-pyran-4-yl)-1,2-dihydro-quinolin-5-yl)-5,6,7,8-tetrahydropyrido[3,2-d]pyrimidin-2-yl)picolinamide]
p300
  Dmax: < 20%
p300; A549 P300 HiBit cells
  DC50: > 1000 nM

## CCc1cc(N(C)c2ccc(-c3cnc(C(=O)NCC#Cc4cccc(NC5CCC(=O)NC5=O)c4)c(C)c3)cc2)c2cc(C)c(=O)n(C)c2c1 (stereo not drawn) [Example B18, N-(3-(3-((2,6-Dioxopiperidin-3-yl)amino)phenyl)prop-2-yn-1-yl)-5-(4-((7-ethyl-1,3-dimethyl-2-oxo-1,2-dihydroquinolin-5-yl)(methyl)amino)phenyl)-3-methylpicolinamide]
p300
  Dmax: > 80%
p300; A549 P300 HiBit cells
  DC50: 10 to 99 nM
